Results on five compounds are retold here after PubChem BioAssay AID2060490 (Molecular Pharmacology Branch, DTP, NCI, 2025).

pIC50: −log10 of the molar value. Values joined by “and” are separate entries in the source; they are usually repeats but may differ in a detail not shown here. Identical values can stand only once.

The test system of the assay is 885512-296-R-J2-PDC complex spheroid viability. Kind of assay: Anticancer human tumor 885512-296-R-J2-PDC patient-derived breast carcinoma cell line growth inhibition [GQUAD]. The settings on record: for viability, T/C: stronger effect = lower value. The source says:
DNA G-quadruplex Stabilizer Agents in Combinations in Complex Spheroids
A high-throughput screen of multi-cell type tumor spheroids was designed to identify active combinations of DNA G-quadruplex stabilizer agents and targeted small molecules. Complex spheroids include a stromal component modeled by human endothelial cells (HUVEC) and fibroblasts modeled by human mesenchymal stem cells (MSCs). The concentration ranges selected for each drug and investigational agent were based upon clinically achievable concentrations if the clinical Cmax of the agent was known.
Compounds. The drugs and investigational agents: pidnarulex (CX-5461; NSC782164), APTO-253 (NSC789042), BRACO-19 (NSC847499), peposertib (NSC802822), ceralasertib (NSC780249), elimusertib (NSC800525), camonsertib (NSC841442), AZD-1390 (NSC803789), olaparib (NSC753686), talazoparib (NSC767125), ART-558 (NSC835418), sotorasib (NSC818433), MRTX-1133 (NSC836407), SN-38 (NSC673596), topotecan (NSC609699), etoposide (NSC141540), doxorubicin (NSC123127), gemcitabine (NSC613327), 5-fluorouracil (NSC19893), paclitaxel (NSC125973), vemurafenib (NSC761431), panobinostat (NSC761190), R-306465 (JNJ-16241199; NSC773264), adavosertib (NSC754352), TP-3654 (NSC805149), carboplatin (NSC241240), KSQ-4279 (NSC840948), and staurosporine (NSC755774) were obtained from the National Cancer Institute (NCI) Developmental Therapeutics Program Chemical Repository (34). The FDA-approved anticancer drug set is available from the NCI Developmental Therapeutics Program. […] The stock solutions were prepared in dimethyl sulfoxide (DMSO, Sigma-Aldrich, St. Louis, MO, cat. D2650) at 800-fold the tested concentration and stored at -70 degrees C prior to their use. All drugs and investigational agents were tested over a range starting from a high concentration at or near the clinical Cmax and decreasing in half-log increments. If the clinical Cmax for an agent had not been determined, the highest concentration tested was 10 microM.
2.3 Cell Culture. All cells were maintained in an incubator at 37 degrees C and 5% CO2 with 95% humidity. The PDC lines were cultured according to standard operating procedures established by the NCI PDMR. All PDCs were thawed and cultured in Matrigel-coated flasks prepared with a working solution of 1X Ham's F-12 nutrient mix, without supplementation (Invitrogen, cat. 11765054), 100 U/mL penicillin-streptomycin (Invitrogen, cat. 15140122), and 2.5% Matrigel (Corning Inc., cat. 354248) for the first three passages. The 857933-349-R-J2-PDC line was cultured in 6C/Colon 1B media, which includes advanced DMEM/F-12 (Thermo Fisher Scientific, cat. 12634028), 10 mM HEPES (Thermo Fisher Scientific, cat. 15630080), 1X GlutaMAX supplement (Thermo Fisher Scientific, cat. 35050061), 0.1 mg/mL primocin (InvivoGen, cat. ant-pm-2), 10% defined fetal bovine serum, heat inactivated (HyClone Laboratories Inc., cat. SH30070.03HI), 50% L-WRN conditioned media (ATCC, cat. CRL-3276), 1.25 mM N-Acetyl-L-cysteine (Sigma-Aldrich, cat. A9165), 10 mM nicotinamide (Sigma-Aldrich, cat. N0636), 1X B-27 supplement (Thermo Fisher Scientific, cat. 17504044), 1X N-2 supplement (Thermo Fisher Scientific, cat. 17502048), 10 microM Y-27632 dihydrochloride (Tocris Bioscience, cat. 1254), and 50 ng/mL human EGF recombinant protein (Thermo Fisher Scientific, cat. PHG0311). The 485176-168-R4-J1-PDC line was cultured in Panc media, which includes all 6C/Colon 1B media components plus 100 ng/mL human FGF-10 (Thermo Fisher Scientific, cat. 100-26), 500 nM SB-431542 (Selleckchem, cat. S1067), and gastrin (Tocris, cat. 3006).
[…]

Setting [1] is: curve of first compound, second compound 0.0316 µM.
Where [2] appears, read: curve of first compound, second compound 0.1 µM.
[3] abbreviates: curve of first compound, second compound 0.316 µM.
Setting [4] is: curve of first compound, second compound 1 µM.
The mark [5] stands for this setting: curve of first compound, second compound 3.16 µM.
Where [6] appears, read: curve of first compound, second compound 10 µM.
[7] abbreviates: second compound 0.0316 µM, first compound 0.0316 µM.
[8] abbreviates: second compound 0.0316 µM, first compound 0.1 µM.
[9] abbreviates: second compound 0.0316 µM, first compound 0.316 µM.
Setting [10] is: second compound 0.0316 µM, first compound 1 µM.
Where [11] appears, read: second compound 0.0316 µM, first compound 3.16 µM.
The mark [12] stands for this setting: second compound 0.0316 µM, first compound 10 µM.
Where [13] appears, read: second compound 0.1 µM, first compound 0.0316 µM.
The mark [14] stands for this setting: second compound 0.1 µM, first compound 0.1 µM.
Setting [15] is: second compound 0.1 µM, first compound 0.316 µM.
[16] abbreviates: second compound 0.1 µM, first compound 1 µM.
Where [17] appears, read: second compound 0.1 µM, first compound 3.16 µM.
[18] abbreviates: second compound 0.1 µM, first compound 10 µM.
[19] abbreviates: second compound 0.316 µM, first compound 0.0316 µM.
The mark [20] stands for this setting: second compound 0.316 µM, first compound 0.1 µM.
Where [21] appears, read: second compound 0.316 µM, first compound 0.316 µM.
[22] abbreviates: second compound 0.316 µM, first compound 1 µM.
Where [23] appears, read: second compound 0.316 µM, first compound 3.16 µM.
[24] abbreviates: second compound 0.316 µM, first compound 10 µM.
The mark [25] stands for this setting: second compound 1 µM, first compound 0.0316 µM.
Where [26] appears, read: second compound 1 µM, first compound 0.1 µM.
[27] abbreviates: second compound 1 µM, first compound 0.316 µM.
Setting [28] is: second compound 1 µM, first compound 1 µM.
Where [29] appears, read: second compound 1 µM, first compound 3.16 µM.
The mark [30] stands for this setting: second compound 1 µM, first compound 10 µM.
The mark [31] stands for this setting: second compound 3.16 µM, first compound 0.0316 µM.
[32] abbreviates: second compound 3.16 µM, first compound 0.1 µM.
Setting [33] is: second compound 3.16 µM, first compound 0.316 µM.
Where [34] appears, read: second compound 3.16 µM, first compound 1 µM.
The mark [35] stands for this setting: second compound 3.16 µM, first compound 3.16 µM.
Where [36] appears, read: second compound 3.16 µM, first compound 10 µM.
Where [37] appears, read: second compound 10 µM, first compound 0.0316 µM.
[38] abbreviates: second compound 10 µM, first compound 0.1 µM.
The mark [39] stands for this setting: second compound 10 µM, first compound 0.316 µM.
Where [40] appears, read: second compound 10 µM, first compound 1 µM.
Setting [41] is: second compound 10 µM, first compound 3.16 µM.
Setting [42] is: second compound 10 µM, first compound 10 µM.
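Note: spheroids exposed to the compounds for one week.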
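Throughout, for viability, T/C: percent of tumor spheroid viability relative to DMSO vehicle control wells.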

Consider `Cc1cccc(N(C)C(=O)C2C(O)CCN2c2nc(C)cc(C(F)(F)F)c2C#N)c1` (stereo not drawn) + Cc1cnc(CNC(=O)c2c(=O)c3ccc(N4CCCN(C)CC4)nc3n3c2sc2ccccc23)cn1, for which the pIC50 runs as follows: under setting [1], below 5.00; under setting [2], below 5.00; under setting [3], above 7.50; under setting [4], above 7.50; under setting [5], above 7.50; under setting [6], above 7.50. In addition, the viability, T/C is 93.2% under setting [7]; 86.2% under setting [8]; 87.4% under setting [9]; 82.8% under setting [10]; 91.4% under setting [11]; 75.6% under setting [12]. The viability, T/C reads like this: under setting [13], 65.8%; under setting [14], 64.4%; under setting [15], 63.1%; under setting [16], 61.2%; under setting [17], 52.5%; under setting [18], 63.9%. For the same compound, the viability, T/C is 31% under setting [19]; 36.2% under setting [20]; 35.8% under setting [21]; 33.9% under setting [22]; 28.6% under setting [23]; 28.6% under setting [24]. Further, the viability, T/C under setting [25] was 26.3%; the viability, T/C under setting [26] is 29%; the viability, T/C under setting [27] is 28.4%; the viability, T/C under setting [28] is 25.6%; the viability, T/C under setting [29] was 27.3%; the viability, T/C under setting [30] is 28.7%. The viability, T/C under setting [31] was 43.4%; the viability, T/C under setting [32] is 25.7%; the viability, T/C under setting [33] is 30.3%; the viability, T/C under setting [34] was 30.5%; the viability, T/C under setting [35] is 28.5%; the viability, T/C under setting [36] was 30.2%. The viability, T/C reads like this: under setting [37], 0.21%; under setting [38], 0.26%; under setting [39], 0.26%; under setting [40], 0.25%; under setting [41], 0.25%; under setting [42], 0.25%.

In the case of `O=C(NO)c1cnc(N2CCN(S(=O)(=O)c3ccc4ccccc4c3)CC2)nc1`, the viability, T/C is 3.89% and 20.5% and 27.5% (compound 0.316 µM); 2.64% and 2.67% and 5.87% (compound 1 µM); 4.12% and 0.29% and 0.35% (compound 3.16 µM); 3.42% and 1.01% and 0.1% (compound 10 µM). Also, the pIC50 (curve of compound) is > 7.50 and 6.92 and 6.73.

Regarding `CC[C@@]1(O)C(=O)OCc2c1cc1n(c2=O)Cc2cc3c(CN(C)C)c(O)ccc3nc2-1`, the viability, T/C (compound 0.000999 µM) was 116% and 100% and 107%; the viability, T/C (compound 0.00316 µM) was 93.6% and 104% and 96.9%; the viability, T/C (compound 0.00999 µM) is 84% and 86.7% and 91.6%; the viability, T/C (compound 0.0316 µM) is 47.7% and 30.2% and 36.7%; the viability, T/C (compound 0.0999 µM) was 11.4% and 8.49% and 7.63%; the viability, T/C (compound 0.316 µM) was 4.95% and 2.59% and 5.86%. Also, the pIC50 (curve of compound) is 7.56 and 7.67 and 7.62.

With `CC(C)(O)C1CCC(Nc2ccc3ncc(-c4cccc(C(F)(F)F)c4)n3n2)CC1` (stereo not drawn), the viability, T/C (compound 0.0316 µM) was 102% and 97.2% and 101%; the viability, T/C (compound 0.1 µM) was 93.2% and 94.8% and 101%; the viability, T/C (compound 0.316 µM) is 95.9% and 90.2% and 100%; the viability, T/C (compound 1 µM) is 89.1% and 67.6% and 76.8%; the viability, T/C (compound 3.16 µM) is 102% and 16.3% and 16.4%; the viability, T/C (compound 10 µM) was 84.3% and 28.2% and 20.7%. The pIC50 (curve of compound) is < 5.00 and 5.81 and 5.77.

Regarding `C=CCn1c(=O)c2cnc(Nc3ccc(N4CCN(C)CC4)cc3)nc2n1-c1cccc(C(C)(C)O)n1` + Cc1[nH]c2ccc(F)cc2c1-c1nc2c3cccnc3c3ncccc3c2[nH]1, the pIC50 is 5.18 under setting [1]; 5.18 under setting [2]; 5.20 under setting [3]; 5.84 under setting [4]; above 7.50 under setting [5]; above 7.50 under setting [6]. Moreover, the viability, T/C was 128% under setting [7]; 96.4% under setting [8]; 96.5% under setting [9]; 125% under setting [10]; 83.7% under setting [11]; 30.8% under setting [12]. Besides, the viability, T/C runs as follows: under setting [13], 108%; under setting [14], 102%; under setting [15], 97.2%; under setting [16], 104%; under setting [17], 88%; under setting [18], 29.2%. In addition, the viability, T/C is 88% under setting [19]; 98% under setting [20]; 96.1% under setting [21]; 95.6% under setting [22]; 89.2% under setting [23]; 23% under setting [24]. Besides, the viability, T/C is 74.3% under setting [25]; 68.4% under setting [26]; 61.6% under setting [27]; 59.1% under setting [28]; 37.4% under setting [29]; 8.34% under setting [30]. Further, the viability, T/C is 6.03% under setting [31]; 7.36% under setting [32]; 2.92% under setting [33]; 6.25% under setting [34]; 8.08% under setting [35]; 1.1% under setting [36]. Also, the viability, T/C is, setting by setting: under setting [37], 1.82%; under setting [38], 2.1%; under setting [39], 2.49%; under setting [40], 1.79%; under setting [41], 2.05%; under setting [42], 1.03%.
